Laboratory results: ChEMBL document CHEMBL1800045, “Eudistomidins H-K, new β-carboline alkaloids from the Okinawan marine tunicate Eudistoma glaucus” (Bioorg Med Chem Lett, 2011)
≈ marks a conversion by molar mass, not a printed value.

Experiments:
Type in all cases: functional, cell-based
[1] = test system: P388; experiment: Cytotoxicity against mouse P388 cells
[2] = test system: KB; experiment: Cytotoxicity against human KB cells
[3] = test system: L1210; experiment: Cytotoxicity against mouse L1210 cells

| Structure (SMILES) | IC50 [1] [µg/mL] | IC50 [2] [µg/mL] | IC50 [3] [µg/mL] |
| --- | --- | --- | --- |
| CC(=O)c1nccc2c1[nH]c1ccc(O)c(Br)c12 [EUDISTOMIDIN K] | > 10 | > 10 | > 10 |
| CN1Cn2c3c(c4ccc(Br)cc42)CCN(C)[C@@H]3[C@@H]1Cc1ccccc1 [EUDISTOMIDIN H] | > 10 | > 10 | > 10 |
| CN[C@H](C[S+](C)[O-])c1nccc2c1[nH]c1ccc(O)c(Br)c12 (stereo partly drawn) [EUDISTOMIDIN J] | 0.043 (≈ 0.112 µM) | 0.063 (≈ 0.165 µM) | 0.047 (≈ 0.123 µM) |
| CN[C@H](CSC)c1nccc2c1[nH]c1ccc(O)c(Br)c12 [EUDISTOMIDIN C] |  |  | 0.36 (≈ 0.983 µM) |
| CN1Cn2c3c(c4cc(Br)ccc42)CCN(C)[C@@H]3[C@@H]1Cc1ccccc1 [EUDISTOMIDIN I] | > 10 | > 10 | > 10 |
